# The source made the active and inactive calls. The calls are words filed in the database; no cut-off is given here.
# Tests used:
# 786-0 = assay: Anti-tumor activity against human 786-0 cells xenografted in mouse model assessed as tumor growth inhibition at 40 mg/kg, po once daily for 15 days; format: functional, organism-based; conditions: time 15.0 day
# [1] = molecular target: T1, Tyrosine-protein kinase receptor UFO (Homo sapiens, UniProt P30530); assay: Inhibition of human AXL measured after 150 mins by ATP-competitive HTRF based biochemical assay
# T1 sequence (P30530 whole entry): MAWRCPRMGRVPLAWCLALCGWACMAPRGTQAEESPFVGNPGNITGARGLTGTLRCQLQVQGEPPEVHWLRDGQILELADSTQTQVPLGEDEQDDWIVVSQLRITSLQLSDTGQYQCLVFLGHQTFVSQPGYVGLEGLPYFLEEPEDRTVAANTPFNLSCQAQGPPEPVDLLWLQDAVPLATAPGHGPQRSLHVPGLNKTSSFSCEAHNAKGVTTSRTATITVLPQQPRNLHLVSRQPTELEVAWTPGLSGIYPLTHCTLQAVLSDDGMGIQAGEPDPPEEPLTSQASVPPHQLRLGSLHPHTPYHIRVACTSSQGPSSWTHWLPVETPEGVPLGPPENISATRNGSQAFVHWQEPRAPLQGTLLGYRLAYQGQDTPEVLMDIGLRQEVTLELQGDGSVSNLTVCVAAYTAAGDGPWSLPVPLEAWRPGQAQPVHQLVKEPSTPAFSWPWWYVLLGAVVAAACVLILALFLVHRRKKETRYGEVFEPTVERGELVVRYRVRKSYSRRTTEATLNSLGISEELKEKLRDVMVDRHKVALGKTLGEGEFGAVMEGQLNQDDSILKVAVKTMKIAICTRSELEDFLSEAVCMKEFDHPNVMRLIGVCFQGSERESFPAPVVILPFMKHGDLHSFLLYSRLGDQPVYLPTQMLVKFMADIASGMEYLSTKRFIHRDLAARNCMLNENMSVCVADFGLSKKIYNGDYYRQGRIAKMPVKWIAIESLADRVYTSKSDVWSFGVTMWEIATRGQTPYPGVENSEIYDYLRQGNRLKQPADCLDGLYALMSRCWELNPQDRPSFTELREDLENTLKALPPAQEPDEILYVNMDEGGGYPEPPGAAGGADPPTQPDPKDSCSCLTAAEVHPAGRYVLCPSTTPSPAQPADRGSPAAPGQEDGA
# [2] = Metabolic stability in rat hepatocytes assessed as intrinsic clearance measured per 10^6 cells; format: ADME, cell-based, Hepatocyte; conditions: read-out: CLH
# [3] = AUCinf in Sprague-Dawley rat at 2 mg/kg, po measured up to 8 hrs by LC-MS/MS analysis; format: ADME, organism-based; conditions: in vivo
# [4] = Efflux ratio in human Caco-2 cells; format: ADME, cell-based
# [5] = Metabolic stability in human hepatocytes assessed as intrinsic clearance measured per 10^6 cells; format: ADME, cell-based, Hepatocyte; conditions: read-out: CLH
# [6] = molecular target: T1, Tyrosine-protein kinase receptor UFO; assay: Inhibition of autophosphorylation AXL (unknown origin) expressed in HEK293 cells assessed as NanoLuc activity associated with phosphorylated proteins measured after 1 hr incubation by intracellular pAXL-ELISA; format: cell-based
# [7] = Clearance in CD-1 mouse at 0.5 mg/kg, iv measured up to 24 hrs by LC-MS/MS analysis; format: ADME, organism-based; conditions: in vivo
# [8] = Clearance in Sprague-Dawley rat at 0.5 mg/kg, iv measured up to 24 hrs by LC-MS/MS analysis; format: ADME, organism-based; conditions: in vivo
# [9] = Clearance in Beagle dog at 0.5 mg/kg, iv measured up to 24 hrs by LC-MS/MS analysis; format: ADME, organism-based, Canis lupus familiaris; conditions: in vivo
# [10] = Clearance in cynomolgus monkey at 0.5 mg/kg, iv measured up to 24 hrs by LC-MS/MS analysis; format: ADME, organism-based, Macaca fascicularis; conditions: in vivo
# [11] = Apparent permeability of compound from apical to basolateral side in human Caco-2 cells; format: ADME, cell-based; conditions: read-out: permeability
# hERG (KCNH2) = hERG (KCNH2) (Homo sapiens, UniProt Q12809); assay: Inhibition of hERG at 10 uM by high throughput cell based patch clamp assay; format: toxicity
# CYP1A2 = molecular target: T2, CYP1A2 (Homo sapiens, UniProt P05177); assay: Time dependent inhibition of CYP1A2 (unknown origin) at 30 uM measured after 30 mins relative to control; format: ADME; conditions: read-out: TDI
# T2 sequence (P05177 whole entry): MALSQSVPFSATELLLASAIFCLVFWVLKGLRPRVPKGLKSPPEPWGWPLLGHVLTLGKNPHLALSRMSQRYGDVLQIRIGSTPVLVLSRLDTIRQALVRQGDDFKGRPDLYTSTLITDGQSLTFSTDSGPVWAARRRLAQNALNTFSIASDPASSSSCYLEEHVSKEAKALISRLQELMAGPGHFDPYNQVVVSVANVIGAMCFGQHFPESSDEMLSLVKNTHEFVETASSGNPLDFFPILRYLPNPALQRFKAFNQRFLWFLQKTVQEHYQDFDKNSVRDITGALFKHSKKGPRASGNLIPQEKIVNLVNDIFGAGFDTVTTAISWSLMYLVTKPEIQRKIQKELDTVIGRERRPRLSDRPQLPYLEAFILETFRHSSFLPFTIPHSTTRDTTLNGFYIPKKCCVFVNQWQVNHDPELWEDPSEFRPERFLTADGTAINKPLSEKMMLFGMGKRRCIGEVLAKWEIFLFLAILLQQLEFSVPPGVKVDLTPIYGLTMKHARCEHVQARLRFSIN
# CYP2B6 = molecular target: T3, CYP2B6 (Homo sapiens, UniProt P20813); assay: Time dependent inhibition of CYP2B6 (unknown origin) at 30 uM measured after 30 mins relative to control; format: ADME; conditions: read-out: TDI
# T3 sequence (P20813 whole entry): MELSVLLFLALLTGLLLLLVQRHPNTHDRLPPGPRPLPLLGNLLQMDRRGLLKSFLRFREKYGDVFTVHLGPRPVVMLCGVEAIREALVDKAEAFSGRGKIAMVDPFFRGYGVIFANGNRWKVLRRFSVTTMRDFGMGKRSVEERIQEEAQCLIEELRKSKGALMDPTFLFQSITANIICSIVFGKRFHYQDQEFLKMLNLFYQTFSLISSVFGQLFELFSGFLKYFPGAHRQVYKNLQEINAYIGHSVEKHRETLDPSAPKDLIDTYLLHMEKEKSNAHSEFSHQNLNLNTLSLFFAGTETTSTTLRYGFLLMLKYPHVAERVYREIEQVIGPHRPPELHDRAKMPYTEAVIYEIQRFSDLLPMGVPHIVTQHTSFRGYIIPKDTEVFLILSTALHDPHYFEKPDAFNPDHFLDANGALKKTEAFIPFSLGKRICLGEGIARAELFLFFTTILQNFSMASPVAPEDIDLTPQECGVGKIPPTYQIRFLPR
# CYP2C8 = molecular target: T4, CYP2C8 (Homo sapiens, UniProt P10632); assay: Time dependent inhibition of CYP2C8 (unknown origin) at 30 uM measured after 30 mins relative to control; format: ADME; conditions: read-out: TDI
# T4 sequence (P10632 whole entry): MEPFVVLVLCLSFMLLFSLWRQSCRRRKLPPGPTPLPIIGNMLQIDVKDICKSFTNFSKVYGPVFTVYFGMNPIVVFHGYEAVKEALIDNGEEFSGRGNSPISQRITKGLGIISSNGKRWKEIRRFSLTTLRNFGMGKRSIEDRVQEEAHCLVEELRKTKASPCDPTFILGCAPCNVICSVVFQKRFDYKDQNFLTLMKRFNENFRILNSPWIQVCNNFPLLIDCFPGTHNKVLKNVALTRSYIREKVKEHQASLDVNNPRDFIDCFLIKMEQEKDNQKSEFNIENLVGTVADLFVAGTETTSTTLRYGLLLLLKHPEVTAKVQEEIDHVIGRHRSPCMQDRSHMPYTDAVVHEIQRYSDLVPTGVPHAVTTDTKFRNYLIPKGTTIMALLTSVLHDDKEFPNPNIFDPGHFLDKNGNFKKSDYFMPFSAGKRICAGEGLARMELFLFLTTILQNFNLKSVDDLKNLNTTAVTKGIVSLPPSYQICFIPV
# CYP2C9 = CYP2C9 (Homo sapiens, UniProt P11712); assay: Time dependent inhibition of CYP2C9 (unknown origin) at 30 uM measured after 30 mins relative to control; format: ADME; conditions: read-out: TDI
# CYP2C19 = CYP2C19 (Homo sapiens, UniProt P33261); assay: Time dependent inhibition of CYP2C19 (unknown origin) at 30 uM measured after 30 mins relative to control; format: ADME; conditions: read-out: TDI
# CYP2D6 = CYP2D6 (Homo sapiens, UniProt P10635); assay: Time dependent inhibition of CYP2D6 (unknown origin) at 30 uM measured after 30 mins relative to control; format: ADME; conditions: read-out: TDI
# CYP3A4 [12] = molecular target: T5, CYP3A4 (Homo sapiens, UniProt P08684); assay: Time dependent inhibition of CYP3A4 (unknown origin) using midazolam as substrate at 30 uM measured after 30 mins relative to control; format: ADME; conditions: probe midazolam, read-out: TDI
# CYP3A4 [13] = molecular target: T5, CYP3A4; assay: Time dependent inhibition of CYP3A4 (unknown origin) using testosterone as substrate at 30 uM measured after 30 mins relative to control; format: ADME; conditions: probe testosterone, read-out: TDI
# T5 sequence (P08684 whole entry): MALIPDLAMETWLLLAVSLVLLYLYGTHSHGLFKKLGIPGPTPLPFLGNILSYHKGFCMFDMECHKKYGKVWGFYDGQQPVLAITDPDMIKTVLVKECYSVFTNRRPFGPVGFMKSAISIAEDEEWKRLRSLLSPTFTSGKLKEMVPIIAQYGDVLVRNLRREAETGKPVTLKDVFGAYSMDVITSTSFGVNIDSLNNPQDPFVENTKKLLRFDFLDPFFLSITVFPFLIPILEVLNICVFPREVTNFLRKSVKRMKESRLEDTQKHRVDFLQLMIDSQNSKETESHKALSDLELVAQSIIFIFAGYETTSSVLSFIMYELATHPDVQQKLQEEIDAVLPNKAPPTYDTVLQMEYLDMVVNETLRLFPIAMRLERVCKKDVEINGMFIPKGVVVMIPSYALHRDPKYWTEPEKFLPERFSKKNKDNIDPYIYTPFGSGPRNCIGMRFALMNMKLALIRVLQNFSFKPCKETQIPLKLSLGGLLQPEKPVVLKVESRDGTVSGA
# hERG (KCNH2), sequence (Q12809 whole entry): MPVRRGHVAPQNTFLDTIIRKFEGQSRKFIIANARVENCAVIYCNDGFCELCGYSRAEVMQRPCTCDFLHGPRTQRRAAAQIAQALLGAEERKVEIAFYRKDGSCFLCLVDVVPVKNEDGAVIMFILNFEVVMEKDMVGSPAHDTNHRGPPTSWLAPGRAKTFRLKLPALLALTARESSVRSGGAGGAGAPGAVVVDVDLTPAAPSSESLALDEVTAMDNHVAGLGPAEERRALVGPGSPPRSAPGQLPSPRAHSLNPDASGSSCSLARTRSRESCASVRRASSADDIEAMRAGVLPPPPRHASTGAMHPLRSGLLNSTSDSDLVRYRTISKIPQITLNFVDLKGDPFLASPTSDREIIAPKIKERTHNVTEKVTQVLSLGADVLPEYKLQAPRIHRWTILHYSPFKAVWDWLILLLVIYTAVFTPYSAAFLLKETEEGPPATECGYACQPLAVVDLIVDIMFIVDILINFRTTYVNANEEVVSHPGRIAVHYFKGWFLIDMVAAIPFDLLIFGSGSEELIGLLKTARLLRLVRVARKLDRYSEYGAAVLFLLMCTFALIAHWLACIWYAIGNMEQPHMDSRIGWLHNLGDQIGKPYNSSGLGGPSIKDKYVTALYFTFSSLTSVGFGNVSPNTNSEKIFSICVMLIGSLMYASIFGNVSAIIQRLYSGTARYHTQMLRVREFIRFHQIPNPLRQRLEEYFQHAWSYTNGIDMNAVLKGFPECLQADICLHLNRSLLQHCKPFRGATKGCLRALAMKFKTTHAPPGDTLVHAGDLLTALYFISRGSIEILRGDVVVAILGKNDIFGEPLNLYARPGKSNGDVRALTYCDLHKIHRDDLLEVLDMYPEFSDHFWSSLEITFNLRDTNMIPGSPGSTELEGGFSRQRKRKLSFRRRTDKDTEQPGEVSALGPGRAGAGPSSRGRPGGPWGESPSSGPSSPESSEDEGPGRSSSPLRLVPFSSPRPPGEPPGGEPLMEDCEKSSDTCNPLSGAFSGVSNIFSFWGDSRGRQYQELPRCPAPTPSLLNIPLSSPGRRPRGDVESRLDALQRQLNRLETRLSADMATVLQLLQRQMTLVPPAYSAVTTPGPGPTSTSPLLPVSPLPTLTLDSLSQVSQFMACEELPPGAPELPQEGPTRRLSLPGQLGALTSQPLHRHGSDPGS
# CYP2D6, sequence (P10635 whole entry): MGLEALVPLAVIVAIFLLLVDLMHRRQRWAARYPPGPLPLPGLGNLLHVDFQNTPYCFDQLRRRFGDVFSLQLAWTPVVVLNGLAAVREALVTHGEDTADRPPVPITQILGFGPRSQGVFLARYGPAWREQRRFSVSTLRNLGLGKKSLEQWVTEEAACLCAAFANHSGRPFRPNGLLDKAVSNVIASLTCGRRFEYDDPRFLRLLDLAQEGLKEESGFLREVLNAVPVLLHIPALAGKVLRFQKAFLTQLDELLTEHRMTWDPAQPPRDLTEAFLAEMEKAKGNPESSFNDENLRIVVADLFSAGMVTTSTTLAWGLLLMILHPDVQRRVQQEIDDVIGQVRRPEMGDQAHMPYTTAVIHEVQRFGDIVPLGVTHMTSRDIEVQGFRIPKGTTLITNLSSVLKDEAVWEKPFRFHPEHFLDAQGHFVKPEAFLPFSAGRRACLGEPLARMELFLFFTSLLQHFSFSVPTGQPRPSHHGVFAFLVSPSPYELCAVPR
# CYP2C9, sequence (P11712 whole entry): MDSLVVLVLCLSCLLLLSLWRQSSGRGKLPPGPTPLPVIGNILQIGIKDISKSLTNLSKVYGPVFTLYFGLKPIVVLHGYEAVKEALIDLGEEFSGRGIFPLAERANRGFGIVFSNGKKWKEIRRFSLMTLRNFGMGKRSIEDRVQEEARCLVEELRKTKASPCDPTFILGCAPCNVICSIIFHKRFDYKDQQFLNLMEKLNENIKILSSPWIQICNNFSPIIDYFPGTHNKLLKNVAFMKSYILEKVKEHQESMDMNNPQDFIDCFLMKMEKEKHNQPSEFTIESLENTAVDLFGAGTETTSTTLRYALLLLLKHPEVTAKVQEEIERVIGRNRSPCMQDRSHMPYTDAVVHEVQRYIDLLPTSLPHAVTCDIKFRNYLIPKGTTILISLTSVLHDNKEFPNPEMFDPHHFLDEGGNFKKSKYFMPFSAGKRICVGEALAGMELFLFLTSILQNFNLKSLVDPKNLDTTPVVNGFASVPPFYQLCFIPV
# CYP2C19, sequence (P33261 whole entry): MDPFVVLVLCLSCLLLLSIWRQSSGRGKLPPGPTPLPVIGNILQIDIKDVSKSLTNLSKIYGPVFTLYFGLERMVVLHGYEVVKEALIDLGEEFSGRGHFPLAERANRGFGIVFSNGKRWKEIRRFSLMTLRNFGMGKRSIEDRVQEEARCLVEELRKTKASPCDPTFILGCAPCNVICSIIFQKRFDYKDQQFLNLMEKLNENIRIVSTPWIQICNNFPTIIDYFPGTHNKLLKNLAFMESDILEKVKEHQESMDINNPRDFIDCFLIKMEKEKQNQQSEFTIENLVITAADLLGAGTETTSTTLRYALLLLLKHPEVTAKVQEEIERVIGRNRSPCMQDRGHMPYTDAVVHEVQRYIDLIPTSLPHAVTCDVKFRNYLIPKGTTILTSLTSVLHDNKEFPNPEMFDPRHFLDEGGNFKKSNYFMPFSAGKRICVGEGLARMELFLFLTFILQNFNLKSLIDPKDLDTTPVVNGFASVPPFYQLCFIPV
smiles,measurement,setting,value
CCN(CC)CCNC(=O)c1c(C)[nH]c(/C=C2\C(=O)Nc3ccc(F)cc32)c1C,Activity,786-0,inactive
Cc1cccnc1-c1ccc(-c2n[nH]c3ncc(-c4ccc5c(c4)CC[C@@H](N4C6COCC4C6)CC5)cc23)cc1,IC50,[1],2.4 nM
same,hepatocyte CLint,[2],2.7 µL/min/1e6 cells
same,AUC(0-inf),[3],3000 ng·h/mL
same,efflux ratio,[4],1
same,hepatocyte CLint,[5],< 2.7 µL/min/1e6 cells
same,IC50,[6],65 nM
same,clearance,[7],5.33 mL/min/kg
same,clearance,[8],2.67 mL/min/kg
same,clearance,[9],25 mL/min/kg
same,clearance,[10],6.83 mL/min/kg
same,Papp A→B,[11],0.96 ×10⁻⁶ cm/s
same,inhibition at 10 µM,hERG (KCNH2),23%
same,"inhibition at 0.5 h, 30 µM",CYP1A2,24%
same,"inhibition at 0.5 h, 30 µM",CYP2B6,22%
same,"inhibition at 0.5 h, 30 µM",CYP2C8,14%
same,"inhibition at 0.5 h, 30 µM",CYP2C9,0%
same,"inhibition at 0.5 h, 30 µM",CYP2C19,23%
same,"inhibition at 0.5 h, 30 µM",CYP2D6,2.4%
same,"inhibition at 0.5 h, 30 µM",CYP3A4 [12],31%
same,"inhibition at 0.5 h, 30 µM",CYP3A4 [13],50%

# From ChEMBL document CHEMBL6134930, “Discovery of AB801, a Potent and Selective Inhibitor of AXL Receptor Tyrosine Kinase for Use in Cancer Therapy” (J Med Chem, 2025)
